Measurements: the supplement of paper PMC11061612

Experiments:
[1] = compound: C1CN(CCC1(C(=O)N[C@@H](CCO)C2=CC=C(C=C2)Cl)N)C3=NC=NC4=C3C=CN4 [Capivasertib]; details: max 10 µM
Summary of the method: (§1)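 After 24 hours at 37°C and 5% CO2 in 1536-well plates holding 7.5 μl of DMEM/F12 or RPMI with 10% FBS, cancer cell lines were dosed for 72 hours, with final DMSO typically 0.2%. Viability came from CellTiter-Glo 2.0 luminescence, scaled between the means of blank wells and DMSO wells. A non-linear mixed effects model fitted a two-parameter logistic curve to each dose response to give the single-agent IC50.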

[2] = compound: Cn1cnc2c(F)c(Nc3ccc(Br)cc3Cl)c(C(=O)NOCCO)cc21 [Selumetinib]; details: max 10 µM
Summary of the method: as §1

[3] = compound: CCN(CCO)CCCOc1ccc2c(Nc3cc(CC(=O)Nc4cccc(F)c4)[nH]n3)ncnc2c1 [AZD2811]; details: max 1 µM
Summary of the method: as §1

[4] = compound: CC1(C)CCC(CN2CCN(c3ccc(C(=O)NS(=O)(=O)c4ccc(NCC5CCOCC5)c([N+](=O)[O-])c4)c(Oc4cnc5[nH]ccc5c4)c3)CC2)=C(c2ccc(Cl)cc2)C1 [Venetoclax]; details: max 1 µM
Summary of the method: as §1

[5] = compound: COc1cccc(OCCCN)c1-c1cc(Nc2cnc(C#N)cn2)n[nH]1 [Prexasertib]; details: max 1 µM
Summary of the method: as §1

[6] = compound: CN(CC[C@H](CSC1=CC=CC=C1)NC2=C(C=C(C=C2)S(=O)(=O)NC(=O)C3=CC=C(C=C3)N4CCC(CC4)[C@H](C5=CC=CC=C5C6=CC=C(C=C6)Cl)O)S(=O)(=O)C(F)(F)F)CCO [AZD4320]; details: max 1 µM
Summary of the method: as §1

[7] = compound: Cc1c2c(nn1C)CSCc1cc(n(C)n1)CSc1cc(c3ccccc3c1)OCCCc1c(C(=O)O)n(C)c3c-2c(Cl)ccc13 [AZD5991]; details: max 1 µM
Summary of the method: as §1

[8] = compound: C[C@@H](Nc1cc(F)cc(F)c1)c1cc(C(=O)N(C)C)cc2c(=O)cc(N3CCOCC3)oc12 [AZD8186]; details: max 3 µM
Summary of the method: as §1

[9] = compound: CC1=C(C(=CC=C1)Cl)NC(=O)C2=CN=C(S2)NC3=CC(=NC(=N3)C)N4CCN(CC4)CCO [Dasatinib]; details: max 2 µM
Summary of the method: as §1

[10] = compound: Cc1nc(-c2cn3c(n2)-c2ccc(-c4cnn(C(C)(C)C(N)=O)c4)cc2OCC3)n(C(C)C)n1 [Taselisib]; details: max 10 µM
Summary of the method: as §1

[11] = compound: C=CCn1c(=O)c2cnc(Nc3ccc(N4CCN(C)CC4)cc3)nc2n1-c1cccc(C(C)(C)O)n1 [AZD1775]; details: max 3 µM
Summary of the method: as §1

[12] = compound: CC(C)n1c(=O)n(C)c2cnc3cc(F)c(-c4ccc(OCCCN5CCCCC5)nc4)cc3c21 [AZD1390]; details: max 0.3 µM
Summary of the method: as §1

[13] = compound: COc1cccc2c1C(=O)c1c(O)c3c(c(O)c1C2=O)C[C@@](O)(C(=O)CO)C[C@@H]3O[C@H]1C[C@H](N)[C@H](O)[C@H](C)O1 [Doxorubicin]; details: max 1 µM
Summary of the method: as §1

[14] = compound: COc1cc2ncnc(Nc3ccc(F)c(Cl)c3)c2cc1OCCCN1CCOCC1 [Gefitinib]; details: max 10 µM
Summary of the method: as §1

[15] = compound: COc1cc(Nc2ncc3c(n2)-c2ccc(Cl)cc2C(c2c(F)cccc2OC)=NC3)ccc1C(=O)O [Alisertib]; details: max 10 µM
Summary of the method: as §1

[16] = compound: CC1=CN2[C@@H](C1)C=NC3=CC(=C(C=C3C2=O)OC)OCCCCCOC4=C(C=C5C(=C4)N=C[C@@H]6CC(=CN6C5=O)C)OC [SG3199]; details: max 0.001 µM
Summary of the method: as §1

[17] = compound: C[C@@H](c1ccc2nccn2c1)n1nnc2ncc(-c3cnn(C)c3)nc21 [Savolitinib]; details: max 1 µM
Summary of the method: as §1

[18] = compound: CS(=O)(=O)CCNCc1ccc(-c2ccc3ncnc(Nc4ccc(OCc5cccc(F)c5)c(Cl)c4)c3c2)o1 [Lapatinib]; details: max 10 µM
Summary of the method: as §1

[19] = compound: CCc1c2c(nc3ccc(O)cc13)-c1cc3c(c(=O)n1C2)COC(=O)[C@]3(O)CC [SN-38]; details: max 0.3 µM
Summary of the method: as §1

[20] = compound: CN(C)CCCOc1ccc(-c2ccc3ncc4c(c3c2)n(C2CCOCC2)c(=O)n4C)cn1 [AZD0156]; details: max 3 µM
Summary of the method: as §1

[21] = compound: C[C@@H]1COCCN1C2=NC(=NC(=C2)C3(CC3)[S@](=N)(=O)C)C4=C5C=CNC5=NC=C4 [AZD6738]; details: max 10 µM
Summary of the method: as §1

[22] = compound: CC(=O)c1c(C)c2cnc(Nc3ccc(N4CCNCC4)cn3)nc2n(C2CCCC2)c1=O [Palbociclib]; details: max 10 µM
Summary of the method: as §1

[23] = compound: C[C@@H](Oc1cc(-c2cnn(C3CCNCC3)c2)cnc1N)c1c(Cl)ccc(F)c1Cl [Crizotinib]; details: max 10 µM
Summary of the method: as §1

[24] = compound: COc1nnc2ccc(N3CCC(c4ccc(OCCN5CCN(C)C(=O)[C@H]5C)cc4)CC3)nn12 [AZD5153]; details: max 1 µM
Summary of the method: as §1

[25] = compound: O=C(c1cc(Cc2n[nH]c(=O)c3ccccc23)ccc1F)N1CCN(C(=O)C2CC2)CC1 [Olaparib]; details: max 10 µM
Summary of the method: as §1

[26] = compound: Cc1cc2ncnn2cc1Nc1ncc2c(n1)n(C1CCOCC1)c(=O)n2C [AZD7648]; details: max 10 µM
Summary of the method: as §1

[27] = compound: CC(=O)Nc1cccc(-n2c(=O)n(C3CC3)c(=O)c3c(Nc4ccc(I)cc4F)n(C)c(=O)c(C)c32)c1 [Trametinib]; details: max 1 µM
Summary of the method: as §1

Cell Line	IC50, cell viability 72 h [1]	IC50, cell viability 72 h [2]	IC50, cell viability 72 h [3]	IC50, cell viability 72 h [4]	IC50, cell viability 72 h [5]	IC50, cell viability 72 h [6]	IC50, cell viability 72 h [7]	IC50, cell viability 72 h [8]	IC50, cell viability 72 h [9]	IC50, cell viability 72 h [10]	IC50, cell viability 72 h [11]	IC50, cell viability 72 h [12]	IC50, cell viability 72 h [13]	IC50, cell viability 72 h [14]	IC50, cell viability 72 h [15]	IC50, cell viability 72 h [16]	IC50, cell viability 72 h [17]	IC50, cell viability 72 h [18]	IC50, cell viability 72 h [19]	IC50, cell viability 72 h [20]	IC50, cell viability 72 h [21]	IC50, cell viability 72 h [22]	IC50, cell viability 72 h [23]	IC50, cell viability 72 h [24]	IC50, cell viability 72 h [25]	IC50, cell viability 72 h [26]	IC50, cell viability 72 h [27]
ALL-SIL (T-Lymphoblastic Leukemia)	> 10000 nM	> 10000 nM	4.94 nM	257 nM	5.65 nM	9.78 nM	141 nM	> 3000 nM	< 2 nM	6050 nM	449 nM	> 300 nM	146 nM	> 10000 nM	44.7 nM	> 1 nM	> 1000 nM	> 10000 nM	1.52 nM	> 3000 nM	1430 nM	> 10000 nM	244 nM	237 nM	> 10000 nM	> 10000 nM	> 1000 nM
CADO-ES1 (Ewing's Sarcoma)	> 10000 nM	> 10000 nM	> 1000 nM	60.9 nM	50 nM	243 nM	207 nM	> 3000 nM	> 2000 nM	> 10000 nM	2290 nM	> 300 nM	827 nM	> 10000 nM	135 nM	> 1 nM	> 1000 nM	> 10000 nM	2.06 nM	> 3000 nM	2890 nM	> 10000 nM	> 10000 nM	> 1000 nM	> 10000 nM	> 10000 nM	> 1000 nM
EJM (Plasma Cell Myeloma)	> 10000 nM	> 10000 nM	> 1000 nM	> 1000 nM	8.91 nM	> 1000 nM	332 nM	> 3000 nM	> 2000 nM	> 10000 nM	202 nM	> 300 nM	837 nM	> 10000 nM	> 10000 nM	> 1 nM	> 1000 nM	> 10000 nM	25.9 nM	> 3000 nM	1650 nM	> 10000 nM	6790 nM	414 nM	> 10000 nM	> 10000 nM	> 1000 nM
EW-1 (Ewing's Sarcoma)	> 10000 nM	> 10000 nM	> 1000 nM	> 1000 nM	10.9 nM	586 nM	> 1000 nM	> 3000 nM	> 2000 nM	640 nM	294 nM	> 300 nM	317 nM	> 10000 nM	4900 nM	> 1 nM	> 1000 nM	> 10000 nM	4.54 nM	> 3000 nM	2480 nM	5210 nM	2040 nM	357 nM	6670 nM	> 10000 nM	> 1000 nM
G-401 (Other Solid Carcinomas)	2710 nM	> 10000 nM	> 1000 nM	> 1000 nM	239 nM	> 1000 nM	> 1000 nM	> 3000 nM	> 2000 nM	336 nM	1410 nM	> 300 nM	111 nM	> 10000 nM	1000 nM	> 1 nM	> 1000 nM	> 10000 nM	58.9 nM	> 3000 nM	> 10000 nM	833 nM	5410 nM	48.3 nM	> 10000 nM	> 10000 nM	84.2 nM
HCC2998 (Colorectal Carcinoma)	> 10000 nM	382 nM	> 1000 nM	> 1000 nM	18.8 nM	485 nM	259 nM	> 3000 nM	> 2000 nM	5390 nM	981 nM	> 300 nM	389 nM	> 10000 nM	> 10000 nM	> 1 nM	> 1000 nM	> 10000 nM	144 nM	> 3000 nM	3120 nM	> 10000 nM	> 10000 nM	314 nM	> 10000 nM	> 10000 nM	14.1 nM
Hey (Ovarian Carcinoma)	> 10000 nM	3040 nM	> 1000 nM	> 1000 nM	128 nM	> 1000 nM	> 1000 nM	> 3000 nM	450 nM	7990 nM	1200 nM	> 300 nM	398 nM	> 10000 nM	1240 nM	> 1 nM	> 1000 nM	> 10000 nM	32 nM	> 3000 nM	6180 nM	> 10000 nM	> 10000 nM	476 nM	> 10000 nM	> 10000 nM	59.8 nM
